Assays:
[1] = system: reverse transcriptase du virus HIV; experiment: Reverse transcriptase activity in culture supernatant of infected, protected CEM cells (virus production); assay type: cell-based
Text: Chaque échantillon est divisé en 2 parties, l'une recevant à nouveau le produit étudié et l'autre cultivée en l'absence de produit.
Les cellules sont cultivées pendant 2 mois.
Les cellules infectées traitées ou non de manière continue par la minocycline ou la doxycycline ont été examinées en ce qui concerne la production de virus. La technique utilisée pour la détermination virale a été celle du dosage de la reverse transcriptase du virus HIV.
L'activité de la reverse transcriptase est mesurée directement sur 50 µl de surnageant de culture. 10 µl de tampon contenant 0,5 M de KCl, 5 mM de dithiotreitol (DTT) et 0,5 % de Triton X-100 sont ajoutés à tous les micropuits contenant les 50 µl de surnageant à tester. 40 µl de tampon contenant 1,25 mM d'éthylène glycol-bis(β-aminoéthyl éther) (EGTA), 0,125 M de Tris.HCl pH 7,8, 12,5 mM de MgCl₂, 3 µCi de (³H) Thymidine triphosphate (TTP), 0,05 DO₂₆₀ d'acide polyadénylique - acide thymidylique (poly rA-oligo dT) sont ajoutés ensuite. La microplaque est couverte au moyen d'un film plastique et incubée 60 minutes à 37°C.
On arrête la réaction en ajoutant 20 µl d'une solution glacée de 120 mM de Na₄P₂O₇ dans 60 % d'acide trichloracétique et les échantillons sont placés 15 minutes sur un lit de glace.
Les précipités sont filtrés sur fibres de verre en utilisant un laveur de cellules (Skatron) et les filtres sont lavés avec une solution de 12 mM de Na₄P₂O₇ dans 5 % d'acide trichloracétique.
Les filtres sont séchés et la radioactivité est comptée après ajout d'un liquide scintillant. Les essais sont faits en triple.

virus HIV (LAV-1-BRU) = experiment: Protection against the cytopathogenic effect of HIV in infected CEM clone 13 cells (MTT viability); assay type: cell-based
Protocol: Le test est réalisé sur la lignée lymphoblastoïde CEM clone 13. Dans une microplaque de 96 puits on dépose 25 µl/puits d'une solution de produit à tester ou de tampon phosphate isotonique (TPI) dans le cas des contrôles. Les produits sont étudiés à différentes concentrations (souvent 8), à raison de 4 puits par concentration. On ajoute alors 125 µl d'une suspension de cellules CEM dans le milieu RPMI contenant 10 % de sérum de veau foetal, 40 U/ml de pénicilline, 40 µg/ml de streptomycine et 5 µg/ml de polybrène (3500 cellules par puits) et les microplaques sont incubées une heure à 37°C, sous une atmosphère contenant 5 % de gaz carbonique. Pour chaque concentration, l'essai est partagé en 2 parties : une partie sur cellules infectées, pour la détermination de l'activité antivirale et l'autre partie sur cellules non infectées, pour déterminer la cytotoxicité des produits. On infecte alors la première série avec HIV (100 µl par puit d'une suspension de virus LAV-1-BRU contenant 200-300 TCID50) tandis que l'autre série reçoit 100 µl de milieu RPMI tel que défini précédemment. Au bout de 7 jours d'incubation, 175 µl de surnageant sont prélevés et rejetés. La viabilité cellulaire est déterminée selon une modification de la technique décrite par R. Pauwels et coll., J. Virol. Meth., 20, 309-321 (1988).
Les puits, contenant encore les cellules (infectées ou non infectées), reçoivent 10 µl d'une solution de MTT (méthylthiazoletétrazolium) à 5 mg/ml dans du tampon phosphate isotonique. Pendant une période d'incubation de 4 heures, le MTT est converti en un sel de formazan (bleu) à l'intérieur des cellules vivantes et proportionnellement à leur nombre, alors que rien n'apparaît dans les puits ne contenant plus que des cellules mortes. On ajoute alors 120 µl d'isopropanol (contenant 0,04 mole/l d'acide chlorhydrique) et les microplaques sont agitées jusqu'à la solubilisation du bleu de formazan. L'absorption à 540 nm est lue avec un lecteur automatique de réactions ELISA en microplaques.
Pour les essais de plus longue durée, on procède comme décrit précédemment jusqu'au jour 7. A ce moment, 100 µl de cellules sont prélevés pour mesurer la proportion de cellules vivantes et le restant est remis en culture avec du milieu frais contenant les produits aux mêmes concentrations. Cette opération est répétée tous les 4 jours.

[2] = product present du jour 0 au jour 18 (1,2 µg/ml), day 20 after infection
[3] = product present du jour 0 au jour 18 (1,2 µg/ml), day 39 after infection
[4] = product present du jour 0 au jour 18 (1,2 µg/ml), day 42 after infection
[5] = product present du jour 0 au jour 18 (1,2 µg/ml), day 46 after infection
[6] = product present du jour 0 au jour 18 (1,2 µg/ml), day 49 after infection
[7] = product present du jour 0 au jour 18 (1,2 µg/ml), day 53 after infection
[8] = product present du jour 0 au jour 18 (1,2 µg/ml), day 56 after infection
[9] = product present du jour 0 au jour 18 (1,2 µg/ml), day 60 after infection
[10] = product present du jour 0 au jour 18 (1,2 µg/ml), day 80 after infection
[11] = product present du jour 0 à la fin de l'expérience (1,2 µg/ml), day 20 after infection
[12] = product present du jour 0 à la fin de l'expérience (1,2 µg/ml), day 39 after infection
[13] = product present du jour 0 à la fin de l'expérience (1,2 µg/ml), day 42 after infection
[14] = product present du jour 0 à la fin de l'expérience (1,2 µg/ml), day 46 after infection
[15] = product present du jour 0 à la fin de l'expérience (1,2 µg/ml), day 49 after infection
[16] = product present du jour 0 à la fin de l'expérience (1,2 µg/ml), day 53 after infection
[17] = product present du jour 0 à la fin de l'expérience (1,2 µg/ml), day 56 after infection
[18] = product present du jour 0 à la fin de l'expérience (1,2 µg/ml), day 60 after infection
[19] = product present du jour 0 à la fin de l'expérience (1,2 µg/ml), day 80 after infection

Compound	Activité de la reverse transcriptase [1, 2] [coups/mn x 10⁻³]	Activité de la reverse transcriptase [1, 3] [coups/mn x 10⁻³]	Activité de la reverse transcriptase [1, 4] [coups/mn x 10⁻³]	Activité de la reverse transcriptase [1, 5] [coups/mn x 10⁻³]	Activité de la reverse transcriptase [1, 6] [coups/mn x 10⁻³]	Activité de la reverse transcriptase [1, 7] [coups/mn x 10⁻³]	Activité de la reverse transcriptase [1, 8] [coups/mn x 10⁻³]	Activité de la reverse transcriptase [1, 9] [coups/mn x 10⁻³]	Activité de la reverse transcriptase [1, 10] [coups/mn x 10⁻³]	Activité de la reverse transcriptase [1, 11] [coups/mn x 10⁻³]	Activité de la reverse transcriptase [1, 12] [coups/mn x 10⁻³]	Activité de la reverse transcriptase [1, 13] [coups/mn x 10⁻³]	Activité de la reverse transcriptase [1, 14] [coups/mn x 10⁻³]	Activité de la reverse transcriptase [1, 15] [coups/mn x 10⁻³]	Activité de la reverse transcriptase [1, 16] [coups/mn x 10⁻³]	Activité de la reverse transcriptase [1, 17] [coups/mn x 10⁻³]	Activité de la reverse transcriptase [1, 18]	Activité de la reverse transcriptase [1, 19] [coups/mn x 10⁻³]	Cellules infectées Densité optique (virus HIV (LAV-1-BRU); 0,01 µg/ml, JOUR 14)	Cellules infectées Densité optique (virus HIV (LAV-1-BRU); 0,01 µg/ml, JOUR 18)	also measured
CN(C)c1ccc(O)c2c1C[C@H]1C[C@H]3[C@H](N(C)C)C(O)=C(C(N)=O)C(=O)[C@@]3(O)C(O)=C1C2=O [Exemple 5, minocycline]	27	21	37	19	21	17	3	2	3	25	33	33	29	37	14	2	2 coups/mn x 10⁻³	5	0,300	0,250	Cellules infectées Densité optique (virus HIV (LAV-1-BRU); 0,01 µg/ml, day 7): 0,660; Cellules infectées Densité optique (virus HIV (LAV-1-BRU); 0,04 µg/ml, JOUR 14): 0,450; Cellules infectées Densité optique (virus HIV (LAV-1-BRU); 0,04 µg/ml, JOUR 18): 0,250; Cellules infectées Densité optique (virus HIV (LAV-1-BRU); 0,04 µg/ml, day 7): 0,720; Cellules infectées Densité optique (virus HIV (LAV-1-BRU); 0,12 µg/ml, JOUR 14): 0,620; Cellules infectées Densité optique (virus HIV (LAV-1-BRU); 0,12 µg/ml, JOUR 18): 0,450; Cellules infectées Densité optique (virus HIV (LAV-1-BRU); 0,12 µg/ml, day 7): 0,890; Cellules infectées Densité optique (virus HIV (LAV-1-BRU); 0,37 µg/ml, JOUR 14): 1,250; Cellules infectées Densité optique (virus HIV (LAV-1-BRU); 0,37 µg/ml, JOUR 18): 1,000; Cellules infectées Densité optique (virus HIV (LAV-1-BRU); 0,37 µg/ml, day 7): 1,210; Cellules infectées Densité optique (virus HIV (LAV-1-BRU); 10 µg/ml, JOUR 14): 0,100; Cellules infectées Densité optique (virus HIV (LAV-1-BRU); 10 µg/ml, JOUR 18): 0,100; Cellules infectées Densité optique (virus HIV (LAV-1-BRU); 10 µg/ml, day 7): 0,450; Cellules infectées Densité optique (virus HIV (LAV-1-BRU); 30 µg/ml, day 7): 0,320; Cellules infectées Densité optique (virus HIV (LAV-1-BRU); 1,11 µg/ml, JOUR 14): 1,250; Cellules infectées Densité optique (virus HIV (LAV-1-BRU); 1,11 µg/ml, JOUR 18): 0,950; Cellules infectées Densité optique (virus HIV (LAV-1-BRU); 1,11 µg/ml, day 7): 1,510; Cellules infectées Densité optique (virus HIV (LAV-1-BRU); 3,33 µg/ml, JOUR 14): 0,400; Cellules infectées Densité optique (virus HIV (LAV-1-BRU); 3,33 µg/ml, JOUR 18): 0,350; Cellules infectées Densité optique (virus HIV (LAV-1-BRU); 3,33 µg/ml, day 7): 1,340
doxycycline [Exemple 2]	21	30	31	21	24	14	2	3	2	25	26	31	27	18	10	2	1,4 coups/mn x 10⁻³	2	0,250	0,240	Cellules infectées Densité optique (virus HIV (LAV-1-BRU); 0,01 µg/ml, day 7): 0,820; Cellules infectées Densité optique (virus HIV (LAV-1-BRU); 0,04 µg/ml, JOUR 14): 0,300; Cellules infectées Densité optique (virus HIV (LAV-1-BRU); 0,04 µg/ml, JOUR 18): 0,275; Cellules infectées Densité optique (virus HIV (LAV-1-BRU); 0,04 µg/ml, day 7): 0,785; Cellules infectées Densité optique (virus HIV (LAV-1-BRU); 0,12 µg/ml, JOUR 14): 0,450; Cellules infectées Densité optique (virus HIV (LAV-1-BRU); 0,12 µg/ml, JOUR 18): 0,250; Cellules infectées Densité optique (virus HIV (LAV-1-BRU); 0,12 µg/ml, day 7): 0,720; Cellules infectées Densité optique (virus HIV (LAV-1-BRU); 0,37 µg/ml, JOUR 14): 0,550; Cellules infectées Densité optique (virus HIV (LAV-1-BRU); 0,37 µg/ml, JOUR 18): 0,300; Cellules infectées Densité optique (virus HIV (LAV-1-BRU); 0,37 µg/ml, day 7): 1,000; Cellules infectées Densité optique (virus HIV (LAV-1-BRU); 10 µg/ml, JOUR 14): 0,100; Cellules infectées Densité optique (virus HIV (LAV-1-BRU); 10 µg/ml, JOUR 18): 0,100; Cellules infectées Densité optique (virus HIV (LAV-1-BRU); 10 µg/ml, day 7): 0,660; Cellules infectées Densité optique (virus HIV (LAV-1-BRU); 30 µg/ml, day 7): 0,200; Cellules infectées Densité optique (virus HIV (LAV-1-BRU); 1,11 µg/ml, JOUR 14): 0,880; Cellules infectées Densité optique (virus HIV (LAV-1-BRU); 1,11 µg/ml, JOUR 18): 0,700; Cellules infectées Densité optique (virus HIV (LAV-1-BRU); 1,11 µg/ml, day 7): 1,240; Cellules infectées Densité optique (virus HIV (LAV-1-BRU); 3,33 µg/ml, JOUR 14): 0,750; Cellules infectées Densité optique (virus HIV (LAV-1-BRU); 3,33 µg/ml, JOUR 18): 0,750; Cellules infectées Densité optique (virus HIV (LAV-1-BRU); 3,33 µg/ml, day 7): 1,370
